From patent publication US4855128A, “Saccharide inhibition of dental plaque” (priority 1988, dated 1989)
pIC50: −log10 of the molar value. Like-named read-outs stand apart in the source and are kept apart here.

Test system: A. viscosus Tl4V-S. sanguis 34 coaggregation
Experiment: Coaggregation assay: inhibition of A. viscosus Tl4V-S. sanguis 34 coaggregation
Format: cell-based
Conditions: for pIC50: read-out: Concentration to effect 50% inhibition of coaggregation; for Concentration to effect 50% inhibition of coaggregation: concentration in % (weight/volume basis); for Inhibition of coaggregation (in words): qualitative; for Rebound of coaggregation on increasing concentration: at concentrations above the 50% inhibition concentration
Experimental: This Example describes an assay for determining the inhibition of coaggregation by various agents according to the invention and the results obtained thereby.
Streptococcus sanguis strain 34 (originally derived from human dental plaque), and Actinomyces viscosus Tl4V were grown in a medium containing the dialyzable portion of Trypticase and Yeast Extract, supplemented with salts and a carbon source, as follows: A concentrated stock solution (20×, to make 10 liters of growth medium) containing Trypticase Peptone (BBL, 170 grams) and Yeast Extract (40 grams) as prepared in a liter of distilled water. This solution was subsequently ultrafiltered in an Amicon model DC-2 hollow fiber ultrafiltration cell, using an HlP10-20 hollow fiber cartridge (molecular weight cut off of 10,000 daltons), and the filtrate (that material of <10,000 daltons molecular weight) saved. The material was concentrated to a final volume of approximately 100 ml, and then reconstituted to one liter, after which the procedure was repeated for a total of three cycles, saving the filtrates at each step. The filtrates were collected into a vessel chilled on ice, combined, and the total volume measured. This stock solution was distributed in aliquots sufficient to make one liter of medium, and stored at -20° C. until used.
To prepare the growth medium, the appropriate volume of the 10× stock Trypticase-Yeast Extract stock solution was thawed, and to it added (in grams per liter): NaCl, 5, and K2 HPO4, 2.5, and the volume adjusted to 1 liter with distilled water. The medium was sterilized by autoclaving. Where indicated, glucose was added as a carbon source to give a final concentration of 0.2%. Initially, this was done by aseptically adding filter-sterilized glucose solutions to the autoclaved medium. For later experiments, glucose was added to the growth medium prior to sterilization.
Streptococci were grown in medium containing 0.2% glucose. Starter cultures were prepared by inoculation from a frozen stock culture, and incubated overnight at 37° C. under aerobic (not anaerobic) conditions. This starter culture was used as a 0.5-1.0% inoculum to inoculate larger quantities of medium (100 ml-1 liter), which were subsequently incubated for 16 hours at 37° C. Growth conditions were similar for the actinomycete, except that they were grown under an anaerobic environment (10% hydrogen-5% carbon dioxide, and 85% nitrogen). The starter culture was incubated for 24-48 hours, but the larger cultures required 48 hours incubation.
After growth, the cells were collected by centrifugation (10,000 x g, 15 minutes, 4° C.) and washed three times in PBS (phosphate-buffered saline, 0.025 M, pH 8.0 containing 1.46g NaCl per liter). The cells were then suspended in PBS such that when the stock cell suspension was diluted 1:10, it would produce an Absorbance at 660 nm of between 0.22-0.24, equivalent to an initial Absorbance of 2.2-2.4. The cells were stored on ice for use during the day, but warmed to ambient temperature before initiation of coaggregation. Residual cells were stored for further use by resuspension in a solution of 50% glycerol in water, and stored at 4° C. On the day of use, the cells were then collected by centrifugation, washed twice with PBS, and the trubidity adjusted as described above.
Assays were performed in a final volume of 1.0 ml in 190×75 mm disposable culture tubes, in duplicate. Controls consisted of 0.8 ml of either cell suspension, and 0.2 ml PBS. The coaggregating mixtures contained 0.4 ml of each cell suspension, and PBS to make 1.0 ml. Inhibitors were added from stock solutions to give the desired final concentrations, and, where necessary, the salt concentrations adjusted using a double-strength (2X) PBS solution. The mixtures were mixed on a Vortex mixer for 10 seconds at a speed setting of 6, incubated at ambient temperature for 10 minutes, vortexed again, and allowed to stand for 2 hours. […]

[1] = average of two independent experiments

| Compound | pIC50 (Actinomyces viscosus, 2 h) | Concentration to effect 50% inhibition of coaggregation [1] [%] | other results |
| --- | --- | --- | --- |
| OC[C@H]1O[C@H](O[C@H]2[C@H](O)[C@@H](O)[C@H](O)O[C@@H]2CO)[C@H](O)[C@@H](O)[C@@H]1O [Maltose, reference compound] | < 1.00 |  |  |
| Agarose [reference compound] |  | > 0.2 | Inhibition of coaggregation (in words): did not demonstrate inhibition |
| OC[C@H]1OC(O)C[C@@H](O)[C@H]1O (stereo partly drawn) [2-deoxy-D-galactose, reference compound] | 1.70 |  |  |
| O=C[C@H](O)[C@@H](O)[C@H](O)[C@H](O)CO [Glucose, reference compound] | < 1.00 |  |  |
| C[C@H]1OC(O)[C@H](O)[C@@H](O)[C@H]1O (stereo partly drawn) [D-Fructose (6-deoxy-D-galactose), 6-deoxy-D-galactose, reference compound] | 1.70 |  |  |
| OC[C@H]1O[C@H](O[C@H]2O[C@H](CO)[C@@H](O)[C@H](O)[C@H]2O)[C@H](O)[C@@H](O)[C@@H]1O [Trehalose, reference compound] | < 1.00 |  |  |
| OC[C@H]1O[C@@](CO)(O[C@H]2O[C@H](CO)[C@@H](O)[C@H](O)[C@H]2O)[C@@H](O)[C@@H]1O [Sucrose, reference compound] | < 1.00 |  |  |
| Guar gum |  | 0.15 |  |
| O=C[C@H](O)[C@@H](O)[C@@H](O)[C@H](O)CO [Galactose, reference compound] | 1.66 |  |  |
| N[C@H]1C(O)O[C@H](CO)[C@H](O)[C@@H]1O (stereo partly shown) [Galactoseamine, reference compound] |  |  | pIC50 (Table 1 carbohydrates, 2 hours, ambient temperature, average of independent experiments in duplicate (lactose n=13, galactose n=6)): 1.46 |
| Agar [reference compound] |  | > 0.2 | Inhibition of coaggregation (in words): did not demonstrate inhibition |
| OC[C@H]1O[C@@H](O[C@@H]2[C@@H](CO)OC(O)(CO)[C@H]2O)[C@H](O)[C@@H](O)[C@H]1O (mixture of isomers) [Lactulose, reference compound] | 1.46 |  |  |
| Chondroitin sulfate |  | 4 | Inhibition of coaggregation at 4% (at 4%): ~50%; Inhibition of coaggregation (in words): substantial inhibition |
| Sodium alginate |  |  | Inhibition of coaggregation at 0.5% (at 0.5%, average of two independent experiments): 32%; Inhibition of coaggregation (in words): substantial inhibition |
| Polygalacturonic acid |  | 0.1 |  |
| Pectin |  | 0.8 | Inhibition of coaggregation at 0.8% (at 0.8%): ~50%; Inhibition of coaggregation (in words): substantial inhibition |
| Soluble starch [reference compound] |  |  | Inhibition of coaggregation at 1.0% (at 1.0%, average of two independent experiments): 8%; Inhibition of coaggregation (in words): poor inhibition |
| OC[C@H]1O[C@@H](O[C@H]2[C@H](O)[C@@H](O)C(O)O[C@@H]2CO)[C@H](O)[C@@H](O)[C@H]1O (stereo partly shown) [Lactose, reference compound] | 2.44 |  |  |
| O=C[C@H](O)[C@@H](O)[C@H](O)[C@H](O)C(=O)O [Glucuronic acid] | 1.82 |  | Rebound of coaggregation on increasing concentration: then rebounds |
| O=C(O)[C@H](O)[C@@H](O)[C@H](O[C@@H]1O[C@H](CO)[C@H](O)[C@H](O)[C@H]1O)[C@H](O)CO [Lactobionic acid, 4-[beta-D-galactosido]-D-gluconic acid] | 2.40 to 2.52 |  | Rebound of coaggregation on increasing concentration: then rebounds; Rebound of coaggregation on increasing concentration (listed as lactobionic acid): rebound effect; Inhibition of coaggregation at the higher concentration (concentration increased up to 100 mM): 10% |
| O=C[C@@H](O)[C@@H](O)[C@H](O)[C@H](O)CO [Mannose, reference compound] | < 1.00 |  |  |
| Xanthan gum |  | 0.05 |  |
